{"source": "paper PMC4977052", "about": "“On the Utility of ToxCast™ and ToxPi as Methods for Identifying New Obesogens” (Environmental Health Perspectives, 2016)", "key": {"[1]": {"test_system": "C/EBP", "set-up": "method as in Knudsen et al. 2011", "conditions": "ToxCast Phase I 2011 release; NA = not active; ref Knudsen et al. 2011; read-out: ATGC CEBP AC50; cited from earlier work"}, "[2]": {"test_system": "RXRα", "conditions": "ref Filer et al. 2014, cited from earlier work"}, "[3]": {"test_system": "3T3-L1 preadipocytes", "assay": "3T3-L1 adipogenesis assay (lipid accumulation, adipogenic gene expression)", "assay_type": "cell-based", "conditions": "0.02-20 μM, 5 days after MDI induction", "procedure,_shortened": "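After 2-day MDI induction with biotin and pantothenate, 3T3-L1 cells were treated 5 days with chemicals at 0.02–20 μM (0.1% DMSO; 10 μM if toxic). Lipid read as Nile red/Hoechst fluorescence ratio; adipogenic genes by QPCR, 2^ΔΔCt versus 36b4, normalized to DMSO.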"}, "[4]": {"test_system": "mouse bone marrow-derived mesenchymal stem cells (mBMSCs)", "assay_type": "cell-based", "conditions": "14 days, Figure 7", "method": "A total of 8 × 10^4 cells/well mouse bone marrow-derived mesenchymal stem cells (mBMSCs) (OriCell™) were seeded in 12-well plates in basic medium: high-glucose DMEM (Hyclone) containing 10% calf bovine serum (Premium Select, Atlanta Biologicals), 100 IU/mL penicillin, 100 μg/mL streptomycin, and 1 mM sodium pyruvate. mBMSCs were induced to differentiate in differentiation media (low glucose αMEM containing 15% fetal bovine serum (Premium Select, Atlanta Biologicals), 100 IU/mL penicillin, 100 μg/mL streptomycin and 2 mM L-glutamine) with adipogenic cocktail (500 μM isometylbutylxanthine, 1 μM dexamethasone, 5 μg/mL insulin) and either 500 nM ROSI, 50 nM TBT or ToxCast™ chemicals (as noted for 3T3-L1 cells) for 14 days, replacing the media every 3 days.\nCells were either fixed in 3.7% formaldehyde in phosphate-buffered saline (PBS) for 30 min at room temperature (RT) for lipid quantitation, or homogenized in TriPure (Roche, Mannheim, Germany) for gene expression analysis. For lipid quantitation, fixed cells were washed twice with PBS and maintained in PBS overnight at 4°C to release residual phenol red. Background of cells were measured prior to staining. Cells were stained with 1 μg/mL Nile red (CAS No. 7385-67-3) (to detect lipid accumulation) and 1 μg/mL Hoechst 33342 (ThermoFisher Scientific) (to detect nuclei as a surrogate for cell number) in PBS for 15 min in the dark at RT and washed twice with PBS. […] Background values of Hoechst and Nile red were subtracted from the RFUs after staining and the ratio RFUNile Red:RFUHoechst was calculated. Data are represented as mean ± SEM. Total RNA was isolated using TriPure (Roche) as recommended by the manufacturer. Reverse transcription and quantitative real-time RT-PCR (QPCR) were performed using Transcriptor RT and SYBR® Green Master Mix (Roche). cDNA was quantitated in a LightCycler® 480 System (Roche Diagnostics, Basel, Switzerland) using primer sets listed in Table S4. Each primer set amplified a single band as determined by gel electrophoresis and melting curve analysis. QPCR data were analyzed using the 2^ΔΔCt method ([Livak and Schmittgen 2001]) relative to ribosomal protein 36b4, normalizing to 0.1% DMSO vehicle. Error bars represent the SEM from four to six biological replicates calculated using standard propagation of error ([Bevington and Robinson 2003])."}, "[5]": {"test_system": "RXRα", "conditions": "cited from earlier work"}, "[6]": {"test_system": "PPARγ", "conditions": "ToxCast Phase I 2011 release; NA = not active; ref Knudsen et al. 2011; read-out: ATGT PPARγ AC50; cited from earlier work"}, "[7]": {"test_system": "PPRE", "set-up": "method as in Knudsen et al. 2011", "conditions": "ToxCast Phase I 2011 release; NA = not active; ref Knudsen et al. 2011; read-out: ATGC PPRE AC50; cited from earlier work"}, "[8]": {"molecular_target": "T1, GAL4-hRXRα (Homo sapiens, UniProt P19793)", "T1 construct": "expressed in transfected cells; host or cells: COS7", "T1 sequence (P19793 with tags, fused parts or gaps limits assumed)": "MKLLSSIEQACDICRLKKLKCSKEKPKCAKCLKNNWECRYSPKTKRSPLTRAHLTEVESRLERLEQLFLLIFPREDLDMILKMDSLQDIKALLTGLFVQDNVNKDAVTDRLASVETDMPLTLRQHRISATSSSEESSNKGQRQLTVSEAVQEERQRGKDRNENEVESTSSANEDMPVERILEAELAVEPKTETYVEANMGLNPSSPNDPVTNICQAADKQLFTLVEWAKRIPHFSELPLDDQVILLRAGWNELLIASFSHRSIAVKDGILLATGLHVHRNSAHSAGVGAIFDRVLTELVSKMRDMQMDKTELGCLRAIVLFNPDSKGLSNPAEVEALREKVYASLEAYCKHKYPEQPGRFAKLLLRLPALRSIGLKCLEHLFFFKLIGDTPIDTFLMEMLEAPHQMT", "assay": "GAL4-hRXRα activation, transient transfection luciferase reporter in COS7 cells", "assay_type": "cell-based", "method": "pCMX-Gal4, pCMX-Gal4-mPPARγ, and pCMX-Gal4-hRXRα were previously described ([Grün et al. 2006]). Transient transfections were performed in COS7 cells as described ([Chamorro-García et al. 2012]). Briefly, COS7 cells were seeded at 15,000 cells per well in 96-well tissue culture plates in 10% calf bovine serum. The following day, cells were transfected in Opti-MEM at ~ 90% confluency. One microgram of CMX-GAL4 effector plasmid was co-transfected with 5 μg tk-(MH100)4-luciferase reporter and 5 μg of CMX-β-galactosidase transfection control plasmids in Opti-MEM® using Lipofectamine® 2000 reagent (Invitrogen™ Life Technologies, Carlsbad, CA, USA), following the manufacturer’s recommended protocol. All chemicals were solvated in dimethyl sulfoxide (DMSO). After overnight incubation, the medium was replaced with Dulbecco’s Modified Eagle Medium (DMEM; HyClone, Logan, UT, USA), 10% resin charcoal stripped fetal bovine serum (FBS) plus ligands at concentrations indicated in the figure legends for an additional 24 hr. DMSO concentration was maintained at 0.05% across all chemical treatments. Cells were lysed and assayed for luciferase and β-galactosidase activity as previously described ([Forman et al. 1995]). All transfections were performed in triplicate and reproduced in multiple experiments. Data are reported as fold induction or reduction over vehicle ([…]) controls ± SEM (standard error of the mean) using standard propagation of error ([Bevington and Robinson 2003]). […] The EC50, EC10, IC50, and IC10 values from NCGC and ToxCast™ are reported from gain AC50 and AC10 values in the ToxCast™ 2014 release ([Filer et al. 2014]).\nFigure 4 ToxPi Chemical Activity on PPARγ and RXRα. The ability of a graded dose series of ToxPi chemicals to activate (A) GAL4-mPPARγ or (B) GAL4-hRXRα was tested in transiently transfected COS7 cells. (A, B) Data points are averages of triplicate transfections (three biological replicates). […] ToxPi chemicals were tested in 3-fold serial dilutions from 100 μM through 0.137 μM, with the final data point being 0.05% DMSO. Data are depicted as fold induction over vehicle (0.05% DMSO) controls ± SEM. (A) Rosiglitazone serves as a positive control activator for GAL4-mPPARγ. (B) LG100268 (2-[1-(3,5,5,8,8-Pentamethyl-5,6,7,8-tetrahydro-2-naphthyl)cyclopropyl]pyridine-5-carboxylic acid) serves as a positive control activator for GAL4-hRXRα. (C) EC50 and EC10 values calculated from A and B are reported and compared to other assays (see Figure S1). ATG, Attagene GAL-PPARγ or GAL-RXRα activation assay; NCGC, GeneBLAzer® GAL-PPARγ or GAL-RXRα activation assays. Triphenyltin was previously published ([Kanayama et al. 2005])."}}, "note": "Where two headings read alike, the source gives them in different places.", "data": [{"smiles": "N#Cc1c[nH]cc1-c1cccc2c1OC(F)(F)O2", "note": "[Fludioxonil]", "values": [{"measurement": "AC50", "setting": "[1]", "value": 21, "unit": "µM"}, {"measurement": "RXRα agonist: EC10, ATG", "setting": "[2]; AC10, ToxCast 2014 release", "value": 17.93, "unit": "µM"}, {"measurement": "EC50", "setting": "[2]; gain AC50, ToxCast 2014 release, read-out: RXRα agonist: EC50, ATG", "value": 23.6, "unit": "µM"}, {"measurement": "Adipogenesis 3T3-L1 (result in words)", "setting": "[3]", "value": "Positive"}, {"measurement": "Adipogenic differentiation of mBMSCs (result in words)", "setting": "[4]", "value": "could differentiate these uncommitted stem cells into adipocytes"}, {"measurement": "RXRα agonist: EC10, NCGC", "setting": "[5]; AC10, ToxCast 2014 release, ref Filer et al. 2014", "value": 1.20, "unit": "µM"}, {"measurement": "AC50", "setting": "[5]; ToxCast Phase I 2011 release, NA = not active, ref Knudsen et al. 2011, read-out: NCGC RXRα AC50", "value": 2.7, "unit": "µM"}, {"measurement": "EC50", "setting": "[5]; gain AC50, ToxCast 2014 release, ref Filer et al. 2014, read-out: RXRα agonist: EC50, NCGC", "value": 2.24, "unit": "µM"}, {"measurement": "AC50", "setting": "[6]", "value": 28, "unit": "µM"}, {"measurement": "AC50", "setting": "[7]", "value": 24, "unit": "µM"}, {"measurement": "Activation of RXRα", "setting": "[8]; COS7, 100 μM through 0.137 μM", "value": "activated RXRα"}, {"measurement": "EC50", "setting": "[8]; COS7, ligands 24 hr, read-out: RXRα agonist: EC50, Fig 4B", "value": 14.3, "unit": "µM"}, {"measurement": "RXRα agonist: EC10, Fig 4B", "setting": "[8]; COS7, computed from EC50", "value": 5.42, "unit": "µM"}, {"measurement": "AC50", "setting": "[8]; Cos-7 transient transfection", "value": 14.3, "unit": "µM"}, {"measurement": "Activation COS7 (result in words): RXRα activator", "setting": "[8]; Cos-7 transient transfection", "value": "RXRα activator"}]}]}
